Data from patent publication US20180177771A1, “BIOMARKERS FOR NANOPARTICLE COMPOSITIONS” (priority 2015, published 2018).

Tests used:
ABCB1/ABCG2 = conditions: cited from earlier work
[1] = in vivo; cited from earlier work
[2] = system: UMUC3 human bladder cancer xenografts; assay: UMUC3 bladder cancer mouse xenograft, Part B combination study; conditions: ABI-009 3 mg/kg twice weekly IV, gemcitabine 30 mg/kg twice weekly IP
Procedure: The anti-tumor efficacy of a panel of drugs, including mitomycin C, cisplatin, gemcitabine, valrubicin, and docetaxel, in combination with Nab-sirolimus (such as ABI-009) were evaluated and compared in a UMUC3 cell xenograft model in athymic nude mice.
Tumors were established from the UMUC3 cells as follows. Female athymic nude mice were obtained and housed in filter-topped cages supplied with autoclaved bedding. Animal handling procedures were under laminar flow hood. Each mouse was ear tagged for individual identification, and the body weight of each mouse was recorded. UMUC3 cells (10×10^6 cells per flank in 0.1 mL PBS with 20% Matrigel) were injected subcutaneously into the right flank of each mouse to implant the tumor. Tumor measurements were recorded three times per week (such as on Mondays, Wednesdays and Fridays) until tumors became approximately 60 to 160 mm^3 total. The mice were randomized for treatment once the average tumor volumes reached approximately 100 mm^2. Prior to the treatment, body weights and tumor measurements of all mice were recorded.
In the Part B combination study, athymic mice bearing UMUC3 human bladder cancer xenografts were treated until study end with ABI-009 (3 mg/kg, twice weekly, IV via tail vein), mitomycin C (0.5 mg/kg, twice weekly, IP), cisplatin (3 mg/kg, twice weekly. IP), gemcitabine (30 mg/kg, twice weekly, IP), valrubicin (20 mg/kg, twice weekly, IP), and docetaxel (3 mg/kg, twice weekly, IP) either as single agent or in combination (ABI-009 plus chemotherapeutic agent). Animals were monitored for tumor volume and body weight.
In each combination of drugs being administered comprising Nab-sirolimus and a second drug (such as MMC. Cis, GEM. Val, and Doc), the second drug was administered immediately before Nab-sirolimus. The mice were monitored during the course of the treatment by recording body weights three times per week (such as on Mondays, Wednesdays and Fridays), recording signs of distress daily, and recording tumor measurements three times per week (such as on Mondays. Wednesdays and Fridays). Measurements of tumor sizes and body weights were continued for 2 weeks following completion of the dosing regimen, or until the mouse was sacrificed when the tumor size of the mouse is more than 2000 mm^3.

| SMILES | affinity for ABCB1/ABCG2 (ABCB1/ABCG2) | brain penetration [1] | animal survival compared with saline control [2] | antitumor activity (tumor growth inhibition) compared with saline control [2] | median survival ([2]; Log-rank test) [days] | TGI ([2]; single agent or combination) [%] |
| --- | --- | --- | --- | --- | --- | --- |
| COc1ccc(COc2cc3oc(=O)c4cc(C(C)O)ccc4c3cc2OC)cc1 (stereo not drawn) [Palomid 529] | lacks affinity for ABCB1/ABCG2 | good brain penetration |  |  |  |  |
| Nc1ccn([C@@H]2O[C@H](CO)[C@@H](O)C2(F)F)c(=O)n1 [gemcitabine] |  |  | only modest effects | only modest effects | 20 | 41.7 |
